Experiment: xn = mol fraction of the nth substance listed
Settings: 100 kPa, Liquid; for viscosity: Falling or rolling sphere viscometry; for mass density: Vibrating tube method

OCC1CC1 [cyclopropylmethanol] + c1ccc2c(c1)CCCC2
Settings	mass density [kg/m3]	viscosity [mPa·s]
293.15 K, x2 = 0	913.02	3.988
293.15 K, x2 = 0.0993	921.89	3.498
293.15 K, x2 = 0.1972	929.26	3.134
293.15 K, x2 = 0.3008	936.02	2.837
293.15 K, x2 = 0.3978	941.84	2.622
293.15 K, x2 = 0.4986	947.21	2.449
293.15 K, x2 = 0.6031	952.27	2.318
293.15 K, x2 = 0.7031	956.72	2.229
293.15 K, x2 = 0.7981	960.63	2.182
293.15 K, x2 = 0.901	964.72	2.164
298.15 K, x2 = 0	908.96	3.455
298.15 K, x2 = 0.0993	917.77	3.039
298.15 K, x2 = 0.1972	925.12	2.734
298.15 K, x2 = 0.3008	931.86	2.49
298.15 K, x2 = 0.3978	937.67	2.313
298.15 K, x2 = 0.4986	943.05	2.173
298.15 K, x2 = 0.6031	948.12	2.068
298.15 K, x2 = 0.7031	952.59	1.997
298.15 K, x2 = 0.7981	956.53	1.963
298.15 K, x2 = 0.901	960.66	1.952
303.15 K, x2 = 0	904.87	3.009
303.15 K, x2 = 0.0993	913.62	2.656
303.15 K, x2 = 0.1972	920.94	2.402
303.15 K, x2 = 0.3008	927.67	2.2
303.15 K, x2 = 0.3978	933.47	2.053
303.15 K, x2 = 0.4986	938.85	1.94
303.15 K, x2 = 0.6031	943.94	1.855
303.15 K, x2 = 0.7031	948.44	1.8
303.15 K, x2 = 0.7981	952.41	1.774
303.15 K, x2 = 0.901	956.59	1.77
308.15 K, x2 = 0	900.74	2.635
308.15 K, x2 = 0.0993	909.43	2.338
308.15 K, x2 = 0.1972	916.73	2.123
308.15 K, x2 = 0.3008	923.44	1.958
308.15 K, x2 = 0.3978	929.24	1.836
308.15 K, x2 = 0.4986	934.63	1.747
308.15 K, x2 = 0.6031	939.74	1.675
308.15 K, x2 = 0.7031	944.26	1.633
308.15 K, x2 = 0.7981	948.28	1.613
308.15 K, x2 = 0.901	952.52	1.618
313.15 K, x2 = 0	896.59	2.321
313.15 K, x2 = 0.0993	905.22	2.068
313.15 K, x2 = 0.1972	912.49	1.889
313.15 K, x2 = 0.3008	919.19	1.754
313.15 K, x2 = 0.3978	925	1.651
313.15 K, x2 = 0.4986	930.4	1.579
313.15 K, x2 = 0.6031	935.53	1.521
313.15 K, x2 = 0.7031	940.09	1.491
313.15 K, x2 = 0.7981	944.15	1.474
313.15 K, x2 = 0.901	948.45	1.485
318.15 K, x2 = 0	892.38	2.054
318.15 K, x2 = 0.0993	900.96	1.84
318.15 K, x2 = 0.1972	908.2	1.688
318.15 K, x2 = 0.3008	914.89	1.577
318.15 K, x2 = 0.3978	920.7	1.492
318.15 K, x2 = 0.4986	926.13	1.433
318.15 K, x2 = 0.6031	931.29	1.387
318.15 K, x2 = 0.7031	935.88	1.366
318.15 K, x2 = 0.7981	939.99	1.355
318.15 K, x2 = 0.901	944.36	1.369
323.15 K, x2 = 0	888.17	1.825
323.15 K, x2 = 0.0993	896.69	1.644
323.15 K, x2 = 0.1972	903.9	1.517
323.15 K, x2 = 0.3008	910.59	1.423
323.15 K, x2 = 0.3978	916.41	1.355
323.15 K, x2 = 0.4986	921.85	1.305
323.15 K, x2 = 0.6031	927.06	1.271
323.15 K, x2 = 0.7031	931.69	1.254
323.15 K, x2 = 0.7981	935.85	1.235
323.15 K, x2 = 0.901	940.3	1.263
328.15 K, x2 = 0	883.86	1.629
328.15 K, x2 = 0.0993	892.34	1.476
328.15 K, x2 = 0.1972	899.54	1.369
328.15 K, x2 = 0.3008	906.23	1.291
328.15 K, x2 = 0.3978	912.06	1.22
328.15 K, x2 = 0.4986	917.54	1.195
328.15 K, x2 = 0.6031	922.78	1.169
328.15 K, x2 = 0.7031	927.49	1.156
328.15 K, x2 = 0.7981	931.68	1.157
328.15 K, x2 = 0.901	936.23	1.174
333.15 K, x2 = 0	879.52	1.46
333.15 K, x2 = 0.0993	887.95	1.331
333.15 K, x2 = 0.1972	895.13	1.241
333.15 K, x2 = 0.3008	901.83	1.176
333.15 K, x2 = 0.3978	907.69	1.131
333.15 K, x2 = 0.4986	913.2	1.1
333.15 K, x2 = 0.6031	918.5	1.08
333.15 K, x2 = 0.7031	923.23	1.071
333.15 K, x2 = 0.7981	927.51	1.076
333.15 K, x2 = 0.901	932.14	1.094
338.15 K, x2 = 0	875.1	1.316
338.15 K, x2 = 0.0993	883.49	1.205
338.15 K, x2 = 0.1972	890.66	1.13
338.15 K, x2 = 0.3008	897.37	1.078
338.15 K, x2 = 0.3978	903.28	1.041
338.15 K, x2 = 0.4986	908.82	1.015
338.15 K, x2 = 0.6031	914.15	1.004
338.15 K, x2 = 0.7031	918.94	0.996
338.15 K, x2 = 0.7981	923.3	1.003
338.15 K, x2 = 0.901	928.03	1.024
343.15 K, x2 = 0	870.62	1.19
343.15 K, x2 = 0.0993	878.98	1.095
343.15 K, x2 = 0.1972	886.15	1.033
343.15 K, x2 = 0.3008	892.87	0.99
343.15 K, x2 = 0.3978	898.8	0.961
343.15 K, x2 = 0.4986	904.39	0.941
343.15 K, x2 = 0.6031	909.78	0.933
343.15 K, x2 = 0.7031	914.63	0.931
343.15 K, x2 = 0.7981	919.07	0.941
343.15 K, x2 = 0.901	923.91	0.961
